Measured values taken from patent US5468734A, “Prophylactic and remedial preparation for diseases attendant on hyperglycemia, and wholesome food” (Godo Shusei Co., Ltd., priority 1992, dated 1995).
Where two headings read alike, the source gives them in different places.

Key:
[1] = target: T1, sucrase (carbohydrase derived from rabbit small intestine mucous membrane) (Oryctolagus cuniculus, UniProt P07768); test: Action to inhibit the hydrolytic activity of homogenate prepared from rabbit small intestine mucous membrane: sucrase inhibition; type: biochemical; details: for inhibition at 2000 µg/mL / inhibition at 500 µg/mL / inhibition at 1000 µg/mL / inhibition at 4000 µg/mL: 0.25 h
T1 construct: suspended again in a 10 mM potassium phosphate buffer (pH: 7.0), thereby obtaining a crude enzyme suspension; from tissue; host or cells: rabbit small intestine (title: mucous membrane), homogenate, 60,000×g precipitate
Protocol: (§1) (Action to inhibit the hydrolytic activity of homogenate prepared from rabbit small intestine mucous membrane to carbohydrate)
(§2) A native kind of white rabbits (weight: 3.0-3.5 kg) were sacrificed by exsanguination to take out their small intestines.
(§3) After freezing and thawing the small intestines thus taken out, they were homogenized in a 5 mM EDTA buffer (pH: 7.0) and subjected to centrifugation for 60 minutes at 60,000×g. Precipitate thus formed was collected and suspended again in a 10 mM potassium phosphate buffer (pH: 7.0), thereby obtaining a crude enzyme suspension.
(§4) Sucrose (20 mM) and maltose (20 mM) were used as substrates.
(§5) Each reaction mixture was formulated so as to contain 350 microliters of a 100 mM maleate buffer (pH: 6.8), 100 microliters of a substrate solution, 50 microliters of the crude enzyme suspension and 50 microliters of a test solution. Substances to be tested were separately dissolved in a maleate buffer (pH: 6.8) before use.
(§6) Respective reactions were conducted for 15 minutes at 37° C.

[2] = test system: maltase (carbohydrase derived from rabbit small intestine mucous membrane); test: Action to inhibit the hydrolytic activity of homogenate prepared from rabbit small intestine mucous membrane: maltase inhibition; type: biochemical; details: for Maltase inhibition rate: substrate maltose 20 mM, pH 6.8, 37° C., 15 minutes
Protocol: as §1, §2, §3, §4, §5, §6

rise in blood sugar = test: Action to depress the rise in blood sugar after sucrose loading to mice; type: in vivo, ICR male mice; details: for Rise in blood sugar: dose 100 mg/kg oral, average ± standard error
Description: (Action to depress the rise in blood sugar after carbohydrate loading)
ICR male mice (weight 30-35 g) were used in proportions of 5 mice per group.
After causing the mice to fast, sucrose or starch was orally administered in a proportion of 1 g/kg to the mice of each group, and at the same time substances to be tested were orally given to mice of their corresponding groups.
Blood was collected from the retroorbital sinus of each mouse before carbohydrate loading and upon elapsed times of 30 minutes, 60 minutes and 120 minutes after the loading to determine the concentration of glucose in the blood plasma by the glucose oxidase method.

[3] = 200 mg/dl, substrate sucrose 20 mM, pH 6.8, 37° C., 15 minutes, read-out: Sucrase inhibition rate
[4] = pH 6.8, read-out: Sucrase inhibition rate

T1 sequence (P07768 1008-1827 limits assumed): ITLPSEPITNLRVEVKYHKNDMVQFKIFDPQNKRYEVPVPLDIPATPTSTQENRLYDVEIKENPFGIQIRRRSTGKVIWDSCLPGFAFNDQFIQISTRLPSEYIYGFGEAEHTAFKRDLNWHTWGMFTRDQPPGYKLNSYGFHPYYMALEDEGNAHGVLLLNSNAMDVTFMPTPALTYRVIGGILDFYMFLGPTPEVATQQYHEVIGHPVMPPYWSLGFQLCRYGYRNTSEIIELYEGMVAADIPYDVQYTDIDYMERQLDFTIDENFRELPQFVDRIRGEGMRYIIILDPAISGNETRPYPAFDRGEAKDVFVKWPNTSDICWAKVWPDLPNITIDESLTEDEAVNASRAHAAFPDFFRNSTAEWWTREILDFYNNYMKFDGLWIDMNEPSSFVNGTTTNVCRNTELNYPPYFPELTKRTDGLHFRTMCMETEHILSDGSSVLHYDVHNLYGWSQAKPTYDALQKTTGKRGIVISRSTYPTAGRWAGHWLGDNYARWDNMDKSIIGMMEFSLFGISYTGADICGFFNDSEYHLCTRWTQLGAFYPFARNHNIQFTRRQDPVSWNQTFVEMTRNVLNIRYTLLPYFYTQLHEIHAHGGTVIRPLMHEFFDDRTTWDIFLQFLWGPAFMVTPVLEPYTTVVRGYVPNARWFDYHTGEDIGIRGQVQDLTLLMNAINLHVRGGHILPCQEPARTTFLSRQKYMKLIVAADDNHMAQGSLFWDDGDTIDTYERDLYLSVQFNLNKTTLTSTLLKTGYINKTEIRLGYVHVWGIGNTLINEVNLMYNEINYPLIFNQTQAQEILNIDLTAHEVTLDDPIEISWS
T1 sequence (P07768 2-1007 partner limits assumed): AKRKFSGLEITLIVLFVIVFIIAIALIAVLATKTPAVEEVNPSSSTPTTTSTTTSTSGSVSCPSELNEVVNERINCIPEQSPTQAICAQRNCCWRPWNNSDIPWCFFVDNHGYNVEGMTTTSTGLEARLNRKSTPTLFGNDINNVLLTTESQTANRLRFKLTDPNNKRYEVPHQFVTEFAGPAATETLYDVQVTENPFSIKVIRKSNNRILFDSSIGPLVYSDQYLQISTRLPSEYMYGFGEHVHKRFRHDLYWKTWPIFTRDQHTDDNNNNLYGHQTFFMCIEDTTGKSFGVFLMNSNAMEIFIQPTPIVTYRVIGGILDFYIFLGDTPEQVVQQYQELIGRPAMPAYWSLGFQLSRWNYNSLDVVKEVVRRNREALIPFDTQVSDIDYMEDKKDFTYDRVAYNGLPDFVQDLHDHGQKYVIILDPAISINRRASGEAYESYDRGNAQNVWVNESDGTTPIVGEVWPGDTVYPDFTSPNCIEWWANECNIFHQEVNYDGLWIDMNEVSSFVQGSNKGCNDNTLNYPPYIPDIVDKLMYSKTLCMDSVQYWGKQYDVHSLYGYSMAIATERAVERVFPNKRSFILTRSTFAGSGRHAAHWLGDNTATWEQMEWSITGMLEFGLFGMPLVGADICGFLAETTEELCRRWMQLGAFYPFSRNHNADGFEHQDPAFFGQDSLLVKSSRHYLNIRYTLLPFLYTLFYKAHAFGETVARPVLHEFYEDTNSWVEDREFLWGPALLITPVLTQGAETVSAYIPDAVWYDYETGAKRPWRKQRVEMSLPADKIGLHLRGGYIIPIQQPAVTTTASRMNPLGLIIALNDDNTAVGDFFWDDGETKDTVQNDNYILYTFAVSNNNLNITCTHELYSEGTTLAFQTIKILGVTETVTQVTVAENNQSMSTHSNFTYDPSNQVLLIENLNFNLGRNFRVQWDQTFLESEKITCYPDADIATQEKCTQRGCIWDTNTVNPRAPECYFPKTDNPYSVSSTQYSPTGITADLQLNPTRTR

| Compound | sucrase-inhibiting action (in words) [1] | inhibition at 2000 µg/mL [1, 3] | maltase-inhibiting action (in words) [2] | Maltase inhibition rate ([2]; 200 mg/dl) | further results |
| --- | --- | --- | --- | --- | --- |
| O=C[C@@H](O)[C@@H](O)[C@H](O)CO [D-Lyxose, D-lyxose] | inhibiting actions second to these | 23.4% | inhibiting actions second to these | 22.3% | Rise in blood sugar (rise in blood sugar; sucrose 1 g/kg, after 30 min.): 62.7 Δmg/dl; Rise in blood sugar (rise in blood sugar; sucrose 1 g/kg, after 60 min.): 57.0 Δmg/dl; action to depress the rise in blood sugar due to sucrose loading (in words) (rise in blood sugar; sucrose 1 g/kg, orally 25, 50 and 100 mg/kg (L-arabinose, D-xylose) or 100 mg/kg (others)): significantly depressed; action to depress the rise in blood sugar for sucrose or starch loading (in words) (rise in blood sugar; sucrose or starch loading, summary statement): effective action to depress the rise in blood sugar |
| OC1OC[C@@H](O[C@@H]2OC[C@@H](O)[C@H](O)[C@H]2O)[C@H](O)[C@H]1O (some centres unmarked) [reference compound] | – | 10.7% | – | 5.5% | – |
| OC1OC[C@@H](O[C@@H]2OC[C@@H](O[C@@H]3OC[C@@H](O)[C@H](O)[C@H]3O)[C@H](O)[C@H]2O)[C@H](O)[C@H]1O (some centres unmarked) [reference compound] | – | 2.7% | – | 3.6% | – |
| N[C@H]1C(O)O[C@H](CO)[C@H](O)[C@@H]1O (stereo partly drawn) [D-Galactosamine, D-galactosamine, reference compound] | no or little inhibiting action | -6.5% | no or little inhibiting action | -4.5% | – |
| O=C(CO)[C@H](O)[C@@H](O)CO [L-Xylulose, L-xylulose, reference compound] | no or little inhibiting action | 10.8% | no or little inhibiting action | 6.4% | – |
| OC[C@H]1O[C@@H](O[C@H]2[C@H](O)[C@H](O)[C@H](O[C@H]3[C@H](O)[C@H](O)[C@H](O[C@H]4[C@H](O)[C@H](O)[C@H](O[C@H]5[C@H](O)[C@H](O)C(O)O[C@@H]5CO)O[C@@H]4CO)O[C@@H]3CO)O[C@@H]2CO)[C@@H](O)[C@@H](O)[C@@H]1O (some centres unmarked) [reference compound] | – | 4% | – | 3.5% | – |
| OC1OC[C@@H](O[C@@H]2OC[C@@H](O[C@@H]3OC[C@@H](O[C@@H]4OC[C@@H](O[C@@H]5OC[C@@H](O)[C@H](O)[C@H]5O)[C@H](O)[C@H]4O)[C@H](O)[C@H]3O)[C@H](O)[C@H]2O)[C@H](O)[C@H]1O (some centres unmarked) [reference compound] | – | -0.5% | – | 1.5% | – |
| O=C[C@@H](O)[C@@H](O)[C@@H](O)[C@H](O)CO [D-Talose, D-talose, reference compound] | no or little inhibiting action | – | no or little inhibiting action | 5.3% | inhibition at 2000 µg/mL [1, 4]: 5.4% |
| OC1OC[C@@H](O[C@@H]2OC[C@@H](O[C@@H]3OC[C@@H](O[C@@H]4OC[C@@H](O)[C@H](O)[C@H]4O)[C@H](O)[C@H]3O)[C@H](O)[C@H]2O)[C@H](O)[C@H]1O (some centres unmarked) [reference compound] | – | 3.5% | – | 2.0% | – |
| O=C[C@@H](O)[C@@H](O)[C@H](O)[C@H](O)CO [D-Mannose, D-mannose, reference compound] | no or little inhibiting action | – | no or little inhibiting action | 25.1% | inhibition at 500 µg/mL [1, 4]: -0.7%; inhibition at 1000 µg/mL [1, 4]: 12.9%; inhibition at 2000 µg/mL [1, 4]: 19.3%; inhibition at 4000 µg/mL [1, 4]: 27.8%; Maltase inhibition rate ([2]; 50 mg/dl): 3.2%; Maltase inhibition rate ([2]; 100 mg/dl): 10.6%; Maltase inhibition rate ([2]; 400 mg/dl): 30.4% |
| OC[C@H]1O[C@@H](O[C@H]2[C@H](O)[C@@H](O)C(O)O[C@@H]2CO)[C@H](O)[C@@H](O)[C@@H]1O (some centres unmarked) [Cellobiose, reference compound] | – | -0.4% | – | 2.8% | – |
| OC[C@H]1O[C@@H](O[C@H]2[C@H](O)[C@H](O)[C@H](O[C@H]3[C@H](O)[C@H](O)[C@H](O[C@H]4[C@H](O)[C@H](O)C(O)O[C@@H]4CO)O[C@@H]3CO)O[C@@H]2CO)[C@@H](O)[C@@H](O)[C@@H]1O (some centres unmarked) [reference compound] | – | -0.3% | – | 0.7% | – |
| O=C[C@@H](O)[C@H](O)[C@H](O)CO [D-Arabinose, D-arabinose, reference compound] | no or little inhibiting action | 11.7% | no or little inhibiting action | 7.8% | inhibition at 500 µg/mL ([1]; 50 mg/dl, substrate sucrose 20 mM, pH 6.8, 37° C., 15 minutes, read-out: Sucrase inhibition rate): 4%; inhibition at 1000 µg/mL ([1]; 100 mg/dl, substrate sucrose 20 mM, pH 6.8, 37° C., 15 minutes, read-out: Sucrase inhibition rate): 6.8% |
| OC[C@H]1O[C@@H](O[C@H]2[C@H](O)[C@H](O)[C@H](O[C@H]3[C@H](O)[C@H](O)C(O)O[C@@H]3CO)O[C@@H]2CO)[C@@H](O)[C@@H](O)[C@@H]1O (some centres unmarked) [reference compound] | – | 2% | – | 1.3% | – |
| O=C[C@H](O)[C@@H](O)[C@@H](O)[C@H](O)CO [D-Galactose, D-galactose, reference compound] | no or little inhibiting action | – | no or little inhibiting action | 15.3% | inhibition at 500 µg/mL [1, 4]: -0.6%; inhibition at 1000 µg/mL [1, 4]: -0.9%; inhibition at 2000 µg/mL [1, 4]: 6.4%; inhibition at 4000 µg/mL [1, 4]: 20.2%; Maltase inhibition rate ([2]; 50 mg/dl): -0.8%; Maltase inhibition rate ([2]; 100 mg/dl): 13.9%; Maltase inhibition rate ([2]; 400 mg/dl): 11.8% |
| O=C(CO)[C@@H](O)[C@H](O)[C@@H](O)CO [L-Sorbose, L-sorbose, reference compound] | no or little inhibiting action | 5.1% | no or little inhibiting action | 7.5% | – |
| OC1OC[C@@H](O[C@@H]2OC[C@@H](O[C@@H]3OC[C@@H](O[C@@H]4OC[C@@H](O[C@@H]5OC[C@@H](O[C@@H]6OC[C@@H](O)[C@H](O)[C@H]6O)[C@H](O)[C@H]5O)[C@H](O)[C@H]4O)[C@H](O)[C@H]3O)[C@H](O)[C@H]2O)[C@H](O)[C@H]1O (some centres unmarked) [reference compound] | – | -7.9% | – | -5.1% | – |
| O=C[C@H](O)[C@H](O)[C@@H](O)CO [L-Lyxose, L-lyxose, reference compound] | no or little inhibiting action | -0.2% | no or little inhibiting action | 10.0% | – |
| C[C@@H](O)[C@H](O)[C@H](O)[C@@H](O)C=O [D-Fucose, D-fucose, reference compound] | no or little inhibiting action | 8.7% | no or little inhibiting action | 4.1% | – |
| OC[C@H]1O[C@@H](OC[C@H]2OC(O)[C@H](O)[C@@H](O)[C@@H]2O)[C@H](O)[C@@H](O)[C@@H]1O (some centres unmarked) [Gentiobiose, reference compound] | – | -2.4% | – | 1.9% | – |
| OC[C@H]1O[C@@H](O[C@H]2[C@H](O)[C@H](O)C(O)O[C@@H]2CO)[C@@H](O)[C@@H](O)[C@@H]1O (some centres unmarked) [reference compound] | – | 0.9% | – | 0.6% | – |
